Measured values: patent US20220275274A1, “NEUTRAL FLUORESCENT MITOCHONDRIAL MARKER BASED ON NITROGEN-CONTAINING HETEROCYCLE, PREPARATION METHOD AND USE THEREOF” (SOOCHOW UNIVERSITY, priority 2020, published 2022)

Tests used:
[1] = ultraviolet absorption and fluorescence emission in chloroform; format: physicochemical; conditions: 10 μM; for maximum emission wavelength (fluorescence spectrum): excitation wavelength and slit width per dye
Description: The ultraviolet absorption and fluorescence emission of the dyes prepared in the examples and comparative examples (at a concentration of 10 μM) in chloroform were tested. The horizontal ordinate is the wavelength, and the vertical ordinate is the absorbance and fluorescence intensity, respectively.
In the ultraviolet-visible absorption spectrum, dye 1a has the maximum absorption at 378 nm; and in the fluorescence spectrum, dye 1a has the highest fluorescence intensity at 452 nm, where the excitation wavelength is 370 nm, and the slit width is 3 nm/1.5 nm. In the ultraviolet-visible absorption spectrum, dye 1b has a maximum absorption wavelength of 382 nm; and in the fluorescence spectrum, dye 1b has a maximum emission wavelength of 485 nm, where the excitation wavelength is 374 nm, and the slit width is 3 nm/1.5 nm. In the ultraviolet-visible absorption spectrum, dye 1c has a maximum absorption wavelength of 385 nm; and in the fluorescence spectrum, dye 1c has a maximum emission wavelength of 454 nm, where the excitation wavelength is 380 nm, and the slit width is 3 nm/1.5 nm. In the ultraviolet-visible absorption spectrum, dye 2a has the maximum absorption at 364 nm; and in the fluorescence spectrum, dye 2a has the highest fluorescence intensity at 480 nm, where the excitation wavelength is 374 nm, and the slit width is 3 nm/1.5 nm. In the ultraviolet-visible absorption spectrum, dye 2b has a maximum absorption wavelength of 360 nm; and in the fluorescence spectrum, dye 2b has a maximum emission wavelength of 458 nm, where the excitation wavelength is 370 nm, and the slit width is 3 nm/1.5 nm. In the ultraviolet-visible absorption spectrum, dye 2c has a maximum absorption wavelength of 356 nm; and in the fluorescence spectrum, dye 2c has a maximum emission wavelength of 441 nm, where the excitation wavelength is 360 nm, and the slit width is 3 nm/3 nm. In the ultraviolet-visible absorption spectrum, dye 3a has the maximum absorption at 548 nm; and in the fluorescence spectrum, dye 3a has the highest fluorescence intensity at 606 nm, where the excitation wavelength is 560 nm, and the slit width is 1.5 nm/1.5 nm. In the ultraviolet-visible absorption spectrum, dye 3b has a maximum absorption wavelength of 549 nm; and in the fluorescence spectrum, dye 3b has a maximum emission wavelength of 608 nm, where the excitation wavelength is 540 nm, and the slit width is 1.5 nm/1.5 nm. In the ultraviolet-visible absorption spectrum, dye 3c has a maximum absorption wavelength of 554 nm; and in the fluorescence spectrum, dye 3c has a maximum emission wavelength of 611 nm, where the excitation wavelength is 540 nm, and the slit width is 1.5 nm/1.5 nm. In the ultraviolet-visible absorption spectrum, dye 3d has a maximum absorption wavelength of 556 nm; and in the fluorescence spectrum, dye 3d has a maximum emission wavelength of 619 nm, where the excitation wavelength is 570 nm, and the slit width is 1.5 nm/1.5 nm. In the ultraviolet-visible absorption spectrum, dye 4 has a maximum absorption wavelength of 501 nm; and in the fluorescence spectrum, dye 4 has a maximum emission wavelength of 515 nm, where the excitation wavelength is 495 nm, and the slit width is 1.5 nm/1.5 nm. The above UV absorption and fluorescence emission test methods are conventional methods.

[2] = tested on: L929 cells; assay: cell imaging, colocalization with green mitochondrial marker Mito Tracker Green FM; format: cell-based; conditions: dye 1 μM; for mitochondria labeling ability (red mitochondrial marker): L929 (normal) and HeLa (cancer) cells, vs Mito Tracker Green FM; for colocalization coefficient: L929 cells, vs Mito Tracker Green FM (100 nm), red and green channel
Description: (§1) Dye 3a was formulated into a mother liquor in DMSO (dimethyl sulfoxide), and then added to a conventional cell culture medium to give a concentration of dye 3a in the cell culture medium of 1 μM. L929 cells and HeLa cells were respectively co-cultured for 10 min in an incubator at saturated humidity, 37° C., and 5% CO2 (the experiment was same below). The existing green mitochondrial marker Mito Tracker® Green FM (100 nm) was added, and the cells were co-incubated for another 10 min, washed three times with a PBS buffer, and imaged under a laser confocal microscope. In the red channel, light of 561 nm was used for excitation, and a fluorescence signal in the range of 570-750 nm was collected. In the green channel, light of 488 nm was used for excitation, and a fluorescence signal in the range of 500-550 nm was collected. […] The results are shown in FIG. 20, where (a) and (g) are the bright-field images; (b) and (h) are the cell images with dye 3a; (c) and (i) are the cell images with the green mitochondrial marker; (d) and (j) are overlapped images with red channel and green channel, (e) and (k) show the fluorescence intensity of the ROI line in the overlapped images; and (f) and (1) show colocalization assays, with a colocalization coefficient of 0.91 (L929) and 0.90 (HeLa) respectively.
(§2) The experiment method with dye 3b (1 μM) and dye 3c (1 μM) is the same as that with dye 3a above, except that dye 3a is replaced. […] In FIG. 21, (a) and (g) are the bright-field images; (b) and (h) are the cell images with dye 3b; (c) and (i) are the cell images with the green mitochondrial marker; (d) and (j) are overlapped images with red channel and green channel, (e) and (k) show the fluorescence intensity of the ROI line in the overlapped images; and (f) and (1) show colocalization assays, with a colocalization coefficient of 0.88 (L929) and 0.90 (HeLa) respectively. In FIG. 22, (a) and (g) are the bright-field images; (b) and (h) are the cell images with dye 3c; (c) and (i) are the cell images with the green mitochondrial marker; (d) and (j) are overlapped images with red channel and green channel, (e) and (k) show the fluorescence intensity of the ROI line in the overlapped images; and (f) and (1) show colocalization assays, with a colocalization coefficient of 0.89 (L929) and 0.87 (HeLa) respectively.
(§3) Dye 3d was formulated into a mother liquor in DMSO (dimethyl sulfoxide), and then added to a conventional cell culture medium to give a concentration of dye 3d in the cell culture medium of 1 μM. L929 cells and HeLa cells were respectively co-cultured for 10 min in an incubator at saturated humidity, 37° C., and 5% CO2. Then the green mitochondrial marker Mito Tracker® Green FM (100 nm) and a green lipid droplet marker were added (the synthesis is as described in CHen, Y.; Wei, X. R.; Sun, R.; Xu, Y. J.; Ge, J. F. Org Biomol CHem 2018, 16, 7619.). The cells were co-incubated for another 10 min, washed three times with a PBS buffer, and imaged under a laser confocal microscope. In the red channel, light of 561 nm was used for excitation, and a fluorescence signal in the range of 570-750 nm was collected. In the green channel, light of 488 nm was used for excitation, and a fluorescence signal in the range of 500-550 nm was collected. […] The results are shown in FIG. 23, where (a) and (f) are the bright-field images, (b) and (g) are the cell images with dye 3d, (c) is the cell image with the green lipid droplet marker, (h) is the cell image with the green mitochondrial marker, (d) and (i) are overlapped images with red channel and green channel, and (e) and (j) show the fluorescence intensity of the ROI line in the overlapped images. […]

[3] = tested on: HeLa cells; assay: as above; format: cell-based; conditions: dye 1 μM, vs Mito Tracker Green FM (100 nm), red and green channel
Description: as §1, §2, §3

maximum absorption wavelength (ultraviolet-visible absorption spectrum) [1] [nm] | maximum emission wavelength (fluorescence spectrum) [1] [nm] | Compound | mitochondria labeling ability (red mitochondrial marker) [2] | colocalization coefficient [2] | colocalization coefficient [3] | organelles marked ([2]; L929 and HeLa cells, vs Mito Tracker Green FM and a green lipid droplet marker)
548 | 606 | CCN(CC)c1ccc2nc3c4ccc(-c5ccc6[nH]ncc6c5)cc4c(=O)cc-3oc2c1 [dye 3a] | mitochondria labeling ability in both normal cells and cancer cells | 0.91 | 0.90 | –
554 | 611 | CCN(CC)c1ccc2nc3c4ccc(-c5cnc6[nH]ncc6c5)cc4c(=O)cc-3oc2c1 [dye 3c] | mitochondria labeling ability in both normal cells and cancer cells | 0.89 | 0.87 | –
549 | 608 | CCN(CC)c1ccc2nc3c4ccc(-c5cnc6[nH]ccc6c5)cc4c(=O)cc-3oc2c1 [dye 3b] | mitochondria labeling ability in both normal cells and cancer cells | 0.88 | 0.90 | –
556 | 619 | CCN(CC)c1ccc2nc3c4ccc(-c5ccc6nccnc6c5)cc4c(=O)cc-3oc2c1 [dye 3d] | – | – | – | simultaneously mark two organelles, i.e. mitochondria and lipid droplets
